{"source": "paper PMC5514153", "about": "“Targeting PTPRZ inhibits stem cell-like properties and tumorigenicity in glioblastoma cells” (Scientific Reports, 2017)", "key": {"hPTPN6": {"biological_target": "T1, hPTPN6 (Homo sapiens, UniProt P29350)", "T1 construct": "the catalytic domains of PTPN1 and PTPN6 were expressed as glutathione-S-transferase (GST) fusion proteins; GST (N); made in house; host or cells: Escherichia coli BL21", "T1 sequence (P29350 244-515 limits assumed)": "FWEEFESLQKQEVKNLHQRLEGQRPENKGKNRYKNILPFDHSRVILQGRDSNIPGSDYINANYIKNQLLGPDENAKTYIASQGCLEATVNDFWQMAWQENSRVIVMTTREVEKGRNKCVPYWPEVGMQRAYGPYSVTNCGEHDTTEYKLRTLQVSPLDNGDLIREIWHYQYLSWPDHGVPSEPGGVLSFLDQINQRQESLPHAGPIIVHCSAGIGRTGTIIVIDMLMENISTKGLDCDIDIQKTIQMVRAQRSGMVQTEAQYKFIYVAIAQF", "experiment": "In vitro PTPase assay (DiFMUP), PTPN6", "type": "biochemical", "settings": "60-min preincubation", "protocol": "(§1) Figure 4 NAZ2329, an allosteric inhibitor of R5 RPTP subfamily members. (A) Structure of NAZ2329. (B) Effect of preincubation of NAZ2329 on its inhibitory activity against PTPRZ. Recombinant human PTPRZ1 enzyme (the whole intracellular region) was premixed with NAZ2329 for the indicated times and followed by addition of a fluorogenic DiFMUP (non-specific PTP substrate, 6,8-difluoro-4-methylumbiliferyl phosphate) to measure PTP inhibitory activity. (C) Time dependence. The PTPRZ1 enzyme was added to the inhibitor–substrate mixture, and the inhibitory activity was determined at each time point relative to the vehicle control. (D) Reversibility of inhibition. […] The mixture was then 20-fold diluted, and recovered PTP activity was expressed as the relative activity compared with the vehicle-treated enzyme. […] PTPRZ1 enzymes were preincubated with NAZ2329 for 60 min, and the PTP activity was measured using DiFMUP. […]\n(§2) Recombinant proteins corresponding to the entire intracellular regions (ICRs) of PTPRZ1, PTPRA, and PTPRM were expressed using a baculovirus-silkworm expression system, and purified as described. The ICRs of PTPRG, PTPRS, and PTPRB and the catalytic domains of PTPN1 and PTPN6 were expressed as glutathione-S-transferase (GST) fusion proteins from each pGEX plasmid in Escherichia coli strain BL21 (ref. [6]). […]"}, "hPTPRS": {"biological_target": "T2, hPTPRS (Homo sapiens, UniProt Q13332)", "T2 construct": "The ICRs of PTPRG, PTPRS, and PTPRB and the catalytic domains of PTPN1 and PTPN6; GST (N); made in house; host or cells: Escherichia coli BL21", "T2 sequence (Q13332 1304-1948 limits assumed)": "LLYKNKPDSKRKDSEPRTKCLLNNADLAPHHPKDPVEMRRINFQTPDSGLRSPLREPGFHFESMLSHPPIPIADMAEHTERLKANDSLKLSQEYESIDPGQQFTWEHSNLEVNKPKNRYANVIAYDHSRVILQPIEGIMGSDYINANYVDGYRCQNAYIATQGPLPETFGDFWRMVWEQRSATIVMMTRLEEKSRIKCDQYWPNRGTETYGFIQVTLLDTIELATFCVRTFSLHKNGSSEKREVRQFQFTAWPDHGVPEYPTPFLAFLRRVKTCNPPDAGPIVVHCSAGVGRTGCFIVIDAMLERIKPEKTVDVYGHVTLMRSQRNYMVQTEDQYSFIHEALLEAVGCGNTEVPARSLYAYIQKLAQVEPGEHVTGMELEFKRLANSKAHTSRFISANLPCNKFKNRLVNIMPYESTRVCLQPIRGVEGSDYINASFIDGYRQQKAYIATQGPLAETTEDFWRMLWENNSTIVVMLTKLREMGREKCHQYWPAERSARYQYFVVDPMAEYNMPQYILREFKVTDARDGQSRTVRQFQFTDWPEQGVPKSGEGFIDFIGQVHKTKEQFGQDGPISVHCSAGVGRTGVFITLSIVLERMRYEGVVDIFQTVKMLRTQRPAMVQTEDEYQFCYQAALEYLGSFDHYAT", "experiment": "In vitro PTPase assay (DiFMUP), PTPRS", "type": "biochemical", "settings": "60-min preincubation", "protocol": "as §1, §2"}}}
{"smiles": "CCOc1ccc(C(F)(F)F)cc1CSc1ccsc1C(=O)NS(=O)(=O)c1ccccc1", "note": "[NAZ2329]", "values": [{"measurement": "IC50", "setting": "hPTPN6", "value": 15.2, "unit": "µM"}, {"measurement": "IC50", "setting": "hPTPRS", "value": 23.7, "unit": "µM"}]}
